According to PubChem BioAssay (NCI):
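A five-concentration, 48-hour dose response in 96-well plates underlies each endpoint, interpolated linearly between surrounding concentrations. The concentration for 50% growth inhibition is given as GI50. Definition used: TGI = concentration required for complete inhibition of growth.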

Key:
Assay in all cases: inhibition of tumour cell growth, NCI panel, 48 h
786-0 renal = tested on: 786-0 renal
A498 renal = tested on: A498 renal
A549 NSCLC = tested on: A549 NSCLC
ACHN renal = tested on: ACHN renal
BT-549 breast = tested on: BT-549 breast
CAKI-1 renal = tested on: CAKI-1 renal
CCRF-CEM leukemia = tested on: CCRF-CEM leukemia
COLO 205 colon = tested on: COLO 205 colon
DU-145 prostate = tested on: DU-145 prostate
HCC-2998 colon = tested on: HCC-2998 colon
HCT-116 colon = tested on: HCT-116 colon
HCT-15 colon = tested on: HCT-15 colon
HL-60(TB) leukemia = tested on: HL-60(TB) leukemia
HOP-62 NSCLC = tested on: HOP-62 NSCLC
HS 578T breast = tested on: HS 578T breast
HT29 colon = tested on: HT29 colon
IGROV1 ovarian = tested on: IGROV1 ovarian
K-562 leukemia = tested on: K-562 leukemia
KM12 colon = tested on: KM12 colon
LOX IMVI melanoma = tested on: LOX IMVI melanoma
M14 melanoma = tested on: M14 melanoma
MALME-3M melanoma = tested on: MALME-3M melanoma
MCF7 breast = tested on: MCF7 breast
MDA-MB-231 breast = tested on: MDA-MB-231 breast
MDA-MB-435 = tested on: MDA-MB-435
MOLT-4 leukemia = tested on: MOLT-4 leukemia
NCI-H226 lung = tested on: NCI-H226 lung
NCI-H23 lung = tested on: NCI-H23 lung
NCI-H460 lung = tested on: NCI-H460 lung
NCI-H522 lung = tested on: NCI-H522 lung
NCI/ADR-RES ovarian = tested on: NCI/ADR-RES ovarian
OVCAR-3 ovarian = tested on: OVCAR-3 ovarian
OVCAR-4 ovarian = tested on: OVCAR-4 ovarian
OVCAR-5 ovarian = tested on: OVCAR-5 ovarian
OVCAR-8 ovarian = tested on: OVCAR-8 ovarian
PC-3 prostate = tested on: PC-3 prostate
RPMI-8226 leukemia = tested on: RPMI-8226 leukemia
RXF 393 renal = tested on: RXF 393 renal
SF-268 CNS = tested on: SF-268 CNS
SF-295 CNS = tested on: SF-295 CNS
SF-539 CNS = tested on: SF-539 CNS
SK-MEL-2 melanoma = tested on: SK-MEL-2 melanoma
SK-MEL-28 melanoma = tested on: SK-MEL-28 melanoma
SK-MEL-5 melanoma = tested on: SK-MEL-5 melanoma
SK-OV-3 ovarian = tested on: SK-OV-3 ovarian
SN12C renal = tested on: SN12C renal
SNB-19 CNS = tested on: SNB-19 CNS
SNB-75 CNS = tested on: SNB-75 CNS
SR leukemia = tested on: SR leukemia
SW-620 colon = tested on: SW-620 colon
T-47D breast = tested on: T-47D breast
TK-10 renal = tested on: TK-10 renal
U251 CNS = tested on: U251 CNS
UACC-257 melanoma = tested on: UACC-257 melanoma
UACC-62 melanoma = tested on: UACC-62 melanoma
UO-31 renal = tested on: UO-31 renal

**Q.** Which results are given for CCCCCNC(=O)[C@@H]1CCCN2C(=O)CC[C@H](NC(=O)[C@H](Cc3ccc(OP(=O)(O)O)cc3)NC(C)=O)C(=O)N12?
**A.** GI50 (786-0 renal): > 25 µM; TGI (786-0 renal): > 25 µM; GI50 (A498 renal): > 25 µM; TGI (A498 renal): > 25 µM; GI50 (A549 NSCLC): > 25 µM; TGI (A549 NSCLC): > 25 µM; GI50 (ACHN renal): > 25 µM; TGI (ACHN renal): > 25 µM; GI50 (BT-549 breast): > 25 µM; TGI (BT-549 breast): > 25 µM; GI50 (CAKI-1 renal): > 25 µM; TGI (CAKI-1 renal): > 25 µM; GI50 (CCRF-CEM leukemia): > 25 µM; TGI (CCRF-CEM leukemia): > 25 µM; GI50 (COLO 205 colon): > 25 µM; TGI (COLO 205 colon): > 25 µM; GI50 (DU-145 prostate): > 25 µM; TGI (DU-145 prostate): > 25 µM; GI50 (HCC-2998 colon): > 25 µM; TGI (HCC-2998 colon): > 25 µM; GI50 (HCT-116 colon): > 25 µM; TGI (HCT-116 colon): > 25 µM; GI50 (HCT-15 colon): > 25 µM; TGI (HCT-15 colon): > 25 µM; GI50 (HL-60(TB) leukemia): > 25 µM; TGI (HL-60(TB) leukemia): > 25 µM; GI50 (HOP-62 NSCLC): > 25 µM; TGI (HOP-62 NSCLC): > 25 µM; GI50 (HS 578T breast): > 25 µM; TGI (HS 578T breast): > 25 µM; GI50 (HT29 colon): > 25 µM; TGI (HT29 colon): > 25 µM; GI50 (IGROV1 ovarian): > 25 µM; TGI (IGROV1 ovarian): > 25 µM; GI50 (K-562 leukemia): > 25 µM; TGI (K-562 leukemia): > 25 µM; GI50 (KM12 colon): > 25 µM; TGI (KM12 colon): > 25 µM; GI50 (LOX IMVI melanoma): > 25 µM; TGI (LOX IMVI melanoma): > 25 µM; GI50 (M14 melanoma): > 25 µM; TGI (M14 melanoma): > 25 µM; GI50 (MALME-3M melanoma): > 25 µM; TGI (MALME-3M melanoma): > 25 µM; GI50 (MCF7 breast): > 25 µM; TGI (MCF7 breast): > 25 µM; GI50 (MDA-MB-231 breast): > 25 µM; TGI (MDA-MB-231 breast): > 25 µM; GI50 (MDA-MB-435): > 25 µM; TGI (MDA-MB-435): > 25 µM; GI50 (MOLT-4 leukemia): > 25 µM; TGI (MOLT-4 leukemia): > 25 µM; GI50 (NCI-H226 lung): > 25 µM; TGI (NCI-H226 lung): > 25 µM; GI50 (NCI-H23 lung): > 25 µM; TGI (NCI-H23 lung): > 25 µM; GI50 (NCI-H460 lung): > 25 µM; TGI (NCI-H460 lung): > 25 µM; GI50 (NCI-H522 lung): > 25 µM; TGI (NCI-H522 lung): > 25 µM; GI50 (NCI/ADR-RES ovarian): > 25 µM; TGI (NCI/ADR-RES ovarian): > 25 µM; GI50 (OVCAR-3 ovarian): > 25 µM; TGI (OVCAR-3 ovarian): > 25 µM; GI50 (OVCAR-4 ovarian): > 25 µM; TGI (OVCAR-4 ovarian): > 25 µM; GI50 (OVCAR-5 ovarian): > 25 µM; TGI (OVCAR-5 ovarian): > 25 µM; GI50 (OVCAR-8 ovarian): > 25 µM; TGI (OVCAR-8 ovarian): > 25 µM; GI50 (PC-3 prostate): > 25 µM; TGI (PC-3 prostate): > 25 µM; GI50 (RPMI-8226 leukemia): > 25 µM; TGI (RPMI-8226 leukemia): > 25 µM; GI50 (RXF 393 renal): > 25 µM; TGI (RXF 393 renal): > 25 µM; GI50 (SF-268 CNS): > 25 µM; TGI (SF-268 CNS): > 25 µM; GI50 (SF-295 CNS): > 25 µM; TGI (SF-295 CNS): > 25 µM; GI50 (SF-539 CNS): > 25 µM; TGI (SF-539 CNS): > 25 µM; GI50 (SK-MEL-2 melanoma): > 25 µM; TGI (SK-MEL-2 melanoma): > 25 µM; GI50 (SK-MEL-28 melanoma): > 25 µM; TGI (SK-MEL-28 melanoma): > 25 µM; GI50 (SK-MEL-5 melanoma): > 25 µM; TGI (SK-MEL-5 melanoma): > 25 µM; GI50 (SK-OV-3 ovarian): > 25 µM; TGI (SK-OV-3 ovarian): > 25 µM; GI50 (SN12C renal): > 25 µM; TGI (SN12C renal): > 25 µM; GI50 (SNB-19 CNS): > 25 µM; TGI (SNB-19 CNS): > 25 µM; GI50 (SNB-75 CNS): > 25 µM; TGI (SNB-75 CNS): > 25 µM; GI50 (SR leukemia): > 25 µM; TGI (SR leukemia): > 25 µM; GI50 (SW-620 colon): > 25 µM; TGI (SW-620 colon): > 25 µM; GI50 (T-47D breast): > 25 µM; TGI (T-47D breast): > 25 µM; GI50 (TK-10 renal): > 25 µM; TGI (TK-10 renal): > 25 µM; GI50 (U251 CNS): > 25 µM; TGI (U251 CNS): > 25 µM; GI50 (UACC-257 melanoma): > 25 µM; TGI (UACC-257 melanoma): > 25 µM; GI50 (UACC-62 melanoma): > 25 µM; TGI (UACC-62 melanoma): > 25 µM; GI50 (UO-31 renal): > 25 µM; TGI (UO-31 renal): > 25 µM
